From EP0450100A1, “PHYSIOLOGICALLY ACTIVE PEPTIDE” (MEIJI SEIKA KAISHA LTD., priority 1989, dated 1991)
No end group written: not given here.

System: canine femoral artery
Test: Influence of the peptides on the blood flow passing through canine femoral artery (VIP bioassay method of Said and Mutt)
Type: in vivo
Conditions: anesthetized beagles; 200 p mol/kg injected into the femoral artery; 0.5 to 4 minutes after injection; conclusion from Table 1 and Table 2
Experimental: The above-mentioned influence was estimated according to the VIP bioassay method proposed by Said and Mutt [see "Nature" 225, 863-864 (1970)]. After three mature beagles having the body weight of 10 kg were fasted for 18 hours, they were anesthetized with thiamylal (10 mg/kg) and Nembutal ([…]). During the experiment, physiological saline was continuously injected (2 mℓ/min.) into a vein of each beagle and the body temperature of the beagle was maintained at 37-38°C by an electric heater. The femoral artery was surgically exposed, and a polyethylene tube filled with heparin-added physiological saline was inserted in and fixed to a muscle branch of the femoral artery so that the polyethylene tube could be used as an injection route for each peptide under test. A probe of an electro-magnetic blood flowmeter was attached to the femoral artery on a peripheral side of the muscle branch so that the average flow rate of blood through the artery was recorded as time-dependent variations on a polygraphy.
A solution of 10 µg of each tested polypeptide dissolved in 25 µℓ of 0.01 N HCl was diluted with physiological saline to prepare an injectable solution of the peptide. The injectable solution was injected into the artery by means of a peristaltic pump. Each peptide was injected at the dose of 200 p mol/kg. Tested peptides included the following compounds: Compound 1: Hd(1-33)-NH2 [the invention peptide of formula (Ic)] Compound 2: Hd(1-31)-NH₂ [the invention peptide of formula (Ia)] Compound 3: VIP(1-28)-Hd(29-35)-NH₂ [the invention peptide of formula (III)] Compound 4: VIP(1-11)-Hd(12-31)-NH₂ [the invention peptide of formula (II)]
Upon elapsed times of 0.5 minute, 1 minute, 2 minutes, 3 minutes and 4 minutes after the injection of each peptide under test,the blood flow rate was measured. Increases in the femoral arterial blood flow rate (mℓ/min.) as comapred with the basal level of blood flow rate were calculated. It may be added that the test results of Table 1 and those of Table 2 were obtained through tests which were conducted by the same method but at different times.

Row | Substance | activity of increasing the blood flow rate (femoral arterial blood flow rate) compared with helodermin | sustaining of the blood-flow-rate-increasing activity compared with helodermin
1 | HSDAIFTQQYSKLLAKLALQKYLASILGSRT-NH2 [Compound 2, Hd(1-31)-NH₂] | enhanced activity of increasing the blood flow rate over helodermin | effects of sustaining the blood-flow-rate-increasing activity in comparison with helodermin
2 | HSDAIFTQQYSKLLAKLALQKYLASILGSRTSP-NH2 [Compound 1, Hd(1-33)-NH₂] | enhanced activity of increasing the blood flow rate over helodermin | effects of sustaining the blood-flow-rate-increasing activity in comparison with helodermin
